Results: patent US20250255976A1, “CATIONIC BIOMATERIALS AMELIORATE OBESITY-ASSOCIATED CHRONIC INFLAMMATION AND FOCAL ADIPOSITY” (THE TRUSTEES OF COLUMBIA UNIVERSITY IN THE CITY OF NEW YORK, priority 2022, published 2025)

Target: T1, TLR3 (Homo sapiens, UniProt O15455)
T1 construct: host or cells: HEK-Blue (HEK293) TLR3 reporter cells
T1 sequence (O15455 24-904): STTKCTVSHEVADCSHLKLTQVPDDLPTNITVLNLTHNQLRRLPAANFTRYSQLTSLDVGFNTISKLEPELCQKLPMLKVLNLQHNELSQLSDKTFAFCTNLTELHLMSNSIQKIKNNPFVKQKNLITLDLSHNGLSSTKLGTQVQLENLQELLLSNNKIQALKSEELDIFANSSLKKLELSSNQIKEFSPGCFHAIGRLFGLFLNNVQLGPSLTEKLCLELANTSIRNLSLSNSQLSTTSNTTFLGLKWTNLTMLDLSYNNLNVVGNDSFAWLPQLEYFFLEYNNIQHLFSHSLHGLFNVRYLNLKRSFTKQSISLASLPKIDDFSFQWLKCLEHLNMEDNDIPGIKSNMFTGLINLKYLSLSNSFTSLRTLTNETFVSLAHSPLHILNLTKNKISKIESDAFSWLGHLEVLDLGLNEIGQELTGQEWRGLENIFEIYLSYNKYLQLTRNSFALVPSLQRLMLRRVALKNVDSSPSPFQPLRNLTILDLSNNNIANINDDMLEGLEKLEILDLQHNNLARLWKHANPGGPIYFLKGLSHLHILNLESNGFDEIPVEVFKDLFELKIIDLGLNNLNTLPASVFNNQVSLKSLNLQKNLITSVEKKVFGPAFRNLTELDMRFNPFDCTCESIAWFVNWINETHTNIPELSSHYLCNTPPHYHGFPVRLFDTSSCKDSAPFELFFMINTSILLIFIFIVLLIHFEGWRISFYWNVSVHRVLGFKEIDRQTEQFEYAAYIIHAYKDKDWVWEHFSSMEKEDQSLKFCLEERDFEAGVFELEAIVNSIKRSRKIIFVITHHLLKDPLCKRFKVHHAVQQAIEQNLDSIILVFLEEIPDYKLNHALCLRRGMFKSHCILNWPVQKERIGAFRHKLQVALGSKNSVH
Experiment: HEK-Blue TLR3 reporter cell SEAP assay, stimulated with murine plasma or liver total RNA
Type: cell-based
Settings: plasma from DIO mice; inhibitor added 30 min before stimulus, or plasma digested with RNase I; FIG. 2F
Procedure: Stable TLR3-, 4-, 8-, and 9-overexpressing HEK-Blue and TLR3 knockout (KO) HEK-Dual Null cells (Invivogen) were propagated in high-glucose Dulbecco's modified Eagle's medium (DMEM) with 10% (v/v) fetal bovine serum (FBS, Corning) and maintained in growth medium supplemented with selective antibiotics following the manufacturer's instructions. RAW264.7 cells (ATCC) were cultured in high-glucose DMEM with 10% (v/v) FBS and then were subcultured by detachment with a cell scraper. C3H10T1/2 cells (ATCC) were cultured in high-glucose DMEM with 10% (v/v) FBS and 1× penicillin/streptomycin (Thermo Fisher). 3T3-L1 cells (ATCC) were cultivated in high-glucose DMEM with 10% (v/v) calf serum and 1× penicillin/streptomycin to maintain the undifferentiated status. At two days post-confluence, 3T3-L1 preadipocytes were induced to differentiate into adipocytes using an adipogenic cocktail containing 10 μg/mL insulin, 1 μM dexamethasone, and 0.5 mM 3-isobutyl-1-methylxanthine in 10% FBS DMEM. Two days post-induction, the cell medium was switched to the maintenance medium of 10% FBS DMEM supplemented with 2.5 μg/mL insulin.
HEK-Blue TLR3 cells (5×10^4 cells/well) were seeded and cultured overnight in 96-well plates in DMEM and then stimulated with murine plasma or liver total RNA. After 48 h, the activation of reporter cells was determined with a Quanti-blue medium (Invivogen). […]

activation of TLR3 by obese plasma	Molecule
blocked	O=C(N[C@H](Cc1ccccc1)C(=O)O)c1sc2cc(F)ccc2c1Cl [TLR3 inhibitor]
blocked	ribonuclease I [RNase I]
